According to patent publication US20060094059A1, “Methods for identifying new drug leads and new therapeutic uses for known drugs” (Odyssey Thera, Inc., priority 2004, published 2006):
Counter-ions that a name gives are not always drawn. Like-named read-outs stand apart in the source and are kept apart here.

Tests used:
CDC42:PAK4 complexes = experiment: Protein-fragment complementation assay CDC42:PAK4; type: cell-based, human; details: for level of CDC42:PAK4 complexes (intensity of the fluorescence): FIG. 3F, compared with the vehicle alone
Description: (§1) To construct dynamic assays for protein-protein complexes, we used a protein-fragment complementation assay strategy (PCAs) in intact human cells. (A variety of other suitable assays, and reporter options, are described in detail below.) The principle of PCA is that complementary polypeptide fragments (F[1] and F[2]) of a reporter protein or enzyme will fold into an active form only if fused to two proteins which interact and bring the complementary fragments of the reporter protein into proximity. Reconstitution of the fragments of the reporter protein generates a fluorescent signal that can be quantified in intact cells, and the amount of the signal is proportional to the amount of the protein-protein complex used in constructing the assay. Given a suitable reporter type, the subcellular location of the complex can also be measured.
(§2) Reporter fragments for PCA were generated by oligonucleotide synthesis (Blue Heron Biotechnology, Bothell, Wash.), starting with the sequence of yellow fluorescent protein (YFP). First, oligonucleotides coding for polypeptide fragments YFP[1]and YFP[2] […] Next, PCR mutagenesis was used to generate the mutant fragments IFP[1] and IFP[2]. The IFP[1] fragment corresponds to YFP[1]-(F46L, F64L, M153T) and the IFP[2] fragment corresponds to YFP[2]-(V163A, S175G). […] The YFP[1], YFP[2], IFP[1] and IFP[2] fragments were amplified by PCR to incorporate restriction sites and a linker sequence, described below, in configurations that would allow fusion of a gene of interest to either the 5′- or 3′-end of each reporter fragment. The reporter-linker fragment cassettes were subcloned into a mammalian expression vector (pcDNA3.1Z, Invitrogen) that had been modified to incorporate the replication origin (oriP) of the Epstein Barr virus (EBV). […] Additionally, these vectors still retain the SV40 origin, allowing for episomal expression in cell lines expressing the SV40 large T antigen (e.g. HEK293T, Jurkat or COS).
(§3) PCA fusion constructs were prepared for a proteins known to participate in cellular pathways that have been described in the scientific literature as being linked to cancer. The selection of protein-protein complexes used, and the rationale for their use, is provided in Table 1 and the gene identifiers for the cDNAs used in assay construction are provided in Table 2. The full coding sequence for each gene of interest was amplified by PCR from a sequence-verified full-length cDNA. Resulting PCR products were column purified (Centricon), digested with appropriate restriction enzymes to allow directional cloning, and fused in-frame to either the 5′ or 3′-end of YFP[1], YFP[2], IFP[1] or IFP[2] through a linker encoding a flexible 10 amino acid peptide (Gly.Gly.Gly.Gly.Ser)2. […] Recombinants in the host strains DH5-alpha (Invitrogen, Carlsbad, Calif.) or XL1 Blue MR (Stratagene, La Jolla, Calif.) were screened by colony PCR, and clones containing inserts of the correct size were subjected to end sequencing to confirm the presence of the gene of interest and in-frame fusion to the appropriate reporter fragment. A subset of fusion constructs were selected for full-insert sequencing by primer walking. DNAs were isolated using Qiagen MaxiPrep kits (Qiagen, Chatsworth, Calif.). PCR was used to assess the integrity of each fusion construct, by combining the appropriate gene-specific primer with a reporter-specific primer to confirm that the correct gene-fusion was present and of the correct size with no internal deletions.
(§4) HEK293 cells were maintained in MEM alpha medium (Invitrogen) supplemented with 10% FBS (Gemini Bio-Products), 1% penicillin, and 1% streptomycin, and grown in a 37° C. incubator equilibrated to 5% CO2. […] Up to 100 ng of the complementary YFP or IFP-fragment fusion vectors were co-transfected using Fugene 6 (Roche) according to the manufacturer's protocol.

[1] = tested on: pancreatic carcinoma (MIA PaCa-2) cells; experiment: MTT proliferation assay, pancreatic; type: cell-based, Human; details: Homo sapiens, Tumor Cell Pancreatic (MIA PaCa-2), 120 hours, read-out: Anti-proliferative IC-50
Protocol: (§5) Cells were maintained in various media as follows: A549, LoVo and PC-3 (Ham's F12K medium with 2 mM L-glutamine and 1.5 g/L sodium bicarbonate), MIA PaCa-2 (Dulbecco's modified Eagle's medium with 4 mM L-glutamine and 4.5 g/L glucose), U87-MG (MEM+Earle's BSS). Medium for each cell line was supplemented with 10% FBS and […] Penecillin/Streptomycin. All cells were grown in incubators set at 37° C., 5% CO2. Thiazolyl Blue Tetrazolium Bromide (MTT) based proliferation assays were performed to assess the anti-proliferative activities of the compounds on these cells. Cells were seeded in 96 well plates at a density of 750 cells/well 24 hours prior to compound treatment. The cells were incubated with varying concentrations of compounds for 120 hours. […] Drug treatment was performed in 5 replicate wells. Background absorbance was established by wells containing medium but no cells. Vehicle (DMSO) only was used as control. MTT (Sigma-Aldrich, St. Louis, Mo.) was added to each well at a final concentration of 0.5 mg/ml. Following a 2 hour incubation at 37° C., medium in the wells was replaced with 0.15 ml DMSO. The plates were agitated for 15 min using a microtiter plate shaker.

[2] = tested on: glioblastoma (U-87 MG) cells; experiment: MTT proliferation assay, glioblastoma; type: cell-based; details: Homo sapiens, Tumor Cell Glioblastoma (U-87 MG), 120 hours, read-out: Anti-proliferative IC-50
Protocol: as §5

[3] = tested on: prostate adenocarcinoma (PC-3) cells; experiment: MTT proliferation assay, prostate; type: cell-based, Human; details: for IC50: Homo sapiens, Tumor Cell Prostate (PC-3), MTT, 120 hours, read-out: Anti-proliferative IC-50
Protocol: (§6) We used these methods to mine the known pharmacopeia for drugs with previously-unsuspected activity against cancer-related pathways. […] Hits from our cell-based screens were tested for antiproliferative activity in up to 5 different human tumor cell lines, as follows. First, drugs with significant activity in the cellular screen(s) were tested for their ability to block proliferation of a human tumor cell line (PC-3) at an initial concentration of 10 micromolar. For drugs with antiproliferative activity in PC-3 cells, dose-response curves to determine the IC50 for antiproliferative activity and additional tumor cell lines were tested to determine the breadth of activity. Methods for assessing the antiproliferative activity of the cell-based drug ‘hits’ are described below.
as §5

[4] = tested on: colon adenocarcinoma (LoVo) cells; experiment: MTT proliferation assay, colon; type: cell-based, Human; details: Homo sapiens, Tumor Cell Colon (LoVo), 120 hours, read-out: Anti-proliferative IC-50
Protocol: as §5

Ras:Raf complexes = experiment: Protein-fragment complementation assay H-Ras:Raf; type: cell-based, human; details: for level of the Ras:Raf complexes (intensity of the fluorescence) / subcellular location of the Ras:Raf complexes: FIG. 3E; for level of the Ras:Raf complexes (intensity of the fluorescence): compared with the vehicle alone; for subcellular location of the Ras:Raf complexes: in control cells complexes localized at the cell membrane; for Assay activity: hit in Ras/Raf assay, drugs screened at 10 micromolar
Description: as §1, §2, §3, §4

[5] = tested on: non-small cell lung carcinoma (A549) cells; experiment: MTT proliferation assay, NSCLC; type: cell-based, Human; details: Homo sapiens, Tumor Cell NSCLC (A549), 120 hours, read-out: Anti-proliferative IC-50
Protocol: as §5

PAK4:Cofilin = experiment: Protein-fragment complementation assay PAK4:Cofilin; type: cell-based, human; details: hit in PAK4/CFL assay; drugs screened at 10 micromolar
Description: as §1, §2, §3, §4

human tumor cell lines = experiment: MTT proliferation assay and phase contrast images, cell line not given (FIGS. 5-10); type: cell-based; details: treated cells vs. DMSO control, cell line not named
Protocol: as §6
Cells were maintained in various media as follows: A549, LoVo and PC-3 (Ham's F12K medium with 2 mM L-glutamine and 1.5 g/L sodium bicarbonate), MIA PaCa-2 (Dulbecco's modified Eagle's medium with 4 mM L-glutamine and 4.5 g/L glucose), U87-MG (MEM+Earle's BSS). Medium for each cell line was supplemented with 10% FBS and […] Penecillin/Streptomycin. All cells were grown in incubators set at 37° C., 5% CO2. Thiazolyl Blue Tetrazolium Bromide (MTT) based proliferation assays were performed to assess the anti-proliferative activities of the compounds on these cells. Cells were seeded in 96 well plates at a density of 750 cells/well 24 hours prior to compound treatment. The cells were incubated with varying concentrations of compounds for 120 hours. Compound concentrations range from 0.03 to 100 microM (half log increments) except for alpha-Tomatine (0.001-100 microM, half log increments), Neriifolin (0.0002-100 microM) and Peruvoside (0.01-100 microM). Drug treatment was performed in 5 replicate wells. Background absorbance was established by wells containing medium but no cells. Vehicle (DMSO) only was used as control. MTT (Sigma-Aldrich, St. Louis, Mo.) was added to each well at a final concentration of 0.5 mg/ml. Following a 2 hour incubation at 37° C., medium in the wells was replaced with 0.15 ml DMSO. The plates were agitated for 15 min using a microtiter plate shaker. […] Mean absorbance values were calculated from 5 replicate wells of each drug treatment following subtraction of background absorbance from blank samples and plotted as a percentage of control.

[6] = hit in CDC42/PAK4 assay, drugs screened at 10 micromolar

IC50 [1] [nM] | IC50 [2] [nM] | IC50 [3] [nM] | IC50 [4] [nM] | IC50 [5] [nM] | SMILES | also measured
3350 | 4600 | 6190 | 6970 | 5400 | CN1C[C@H](CNC(=O)OCc2ccccc2)C[C@@H]2c3cccc4c3c(cn4C)C[C@H]21 [Metergoline] | level of CDC42:PAK4 complexes (intensity of the fluorescence) (CDC42:PAK4 complexes): decrease in the level; Assay activity (CDC42:PAK4 complexes; [6]): CDC42/PAK4; level of the Ras:Raf complexes (intensity of the fluorescence) (Ras:Raf complexes): decrease in the level; subcellular location of the Ras:Raf complexes (Ras:Raf complexes): redistribution of the complexes to an intracellular structure
 |  |  |  |  | Cc1cccc(Nc2cc(Cl)nc(SCC(=O)O)n2)c1C [WY-14643] | proliferation of PC-3 cells (MTT assay) ([3]; FIG. 4, compared to the DMSO control): no effect on proliferation
130 |  | 270 | 70 | 180 | COC(=O)Nc1nc2ccc(C(=O)c3ccccc3)cc2[nH]1 [Mebendazole] | Assay activity (PAK4:Cofilin): PAK4/CFL
 |  |  |  |  | C(=C\c1ccccc1)/CN1CCN(C(c2ccccc2)c2ccccc2)CC1 [Cinnarizine] | cell count (phase contrast images) (human tumor cell lines): decreased the cell count
 |  |  |  |  | Oc1ccc(Cl)cc1Cc1cc(Cl)ccc1O [Dichlorophene] | Assay activity (Ras:Raf complexes): Ras/Raf
 |  |  |  |  | COC(=O)[C@H]1[C@H]2C[C@H]3c4[nH]c5cc(OC)ccc5c4CCN3C[C@H]2C[C@@H](OC(=O)c2cc(OC)c(OC)c(OC)c2)[C@@H]1OC [isoreserpine] | cell count (phase contrast images) (human tumor cell lines): decreased the cell count
 |  |  |  |  | CCN(CC)CCOc1ccc(C(=C(Cl)c2ccccc2)c2ccccc2)cc1 [Clomiphene] | Assay activity (Ras:Raf complexes): Ras/Raf
 |  |  |  |  | Clc1ccccc1C(c1ccccc1)(c1ccccc1)n1ccnc1 [clotrimazole] | cell count (phase contrast images) (human tumor cell lines): decreased the cell count
5130 | 16400 | 13900 | 13900 | 13900 | CN(C)CCCN1c2ccccc2Sc2ccccc21 [Promazine] | level of the Ras:Raf complexes (intensity of the fluorescence) (Ras:Raf complexes): decrease in the level; subcellular location of the Ras:Raf complexes (Ras:Raf complexes): redistribution of the complexes to an intracellular structure; Assay activity (Ras:Raf complexes): Ras/Raf
 | 6900 | 14600 | 10600 |  | CNCCCN1c2ccccc2CCc2ccccc21 [Desipramine] | level of the Ras:Raf complexes (intensity of the fluorescence) (Ras:Raf complexes): decrease in the level; subcellular location of the Ras:Raf complexes (Ras:Raf complexes): redistribution of the complexes to an intracellular structure; Assay activity (Ras:Raf complexes): Ras/Raf
350 | 380 |  | 990 | 550 | CC(C)(C)c1ccc(C(O)CCCN2CCC(C(O)(c3ccccc3)c3ccccc3)CC2)cc1 (stereo not drawn) [Terfenadine] | level of CDC42:PAK4 complexes (intensity of the fluorescence) (CDC42:PAK4 complexes): decrease in the level; Assay activity (CDC42:PAK4 complexes; [6]): CDC42/PAK4; cell count (phase contrast images) (human tumor cell lines): reduced the cell count
 |  |  |  |  | CC/C(=C(\c1ccccc1)c1ccc(OCCN(C)C)cc1)c1ccccc1 [tamoxifen citrate] | level of the Ras:Raf complexes (intensity of the fluorescence) (Ras:Raf complexes): decrease in the level; subcellular location of the Ras:Raf complexes (Ras:Raf complexes): redistribution of the complexes to an intracellular structure
 | 5750 | 8690 | 3680 |  | CC(C)COCC(CN(Cc1ccccc1)c1ccccc1)N1CCCC1 (stereo not drawn) [Bepridil] | level of CDC42:PAK4 complexes (intensity of the fluorescence) (CDC42:PAK4 complexes): decrease in the level; Assay activity (CDC42:PAK4 complexes; [6]): CDC42/PAK4

SMILES | IC50 [1] [nM] | IC50 [2] [nM] | IC50 [3] [nM] | IC50 [4] [nM] | IC50 [5] [nM] | also measured
C[n+]1cc2c3c(ccc2c2ccc4cc5c(cc4c21)OCO5)OCO3 [Sanguinarine] | 180 | 340 | 330 | 810 | 780 | 
CCCSc1ccc2nc(NC(=O)OC)[nH]c2c1 [Albendazole] | 180 |  | 300 | 140 | 240 | Assay activity (CDC42:PAK4 complexes): CDC42/PAK4
C[C@H]1CC[C@]2(NC1)O[C@H]1C[C@H]3[C@@H]4CC[C@H]5C[C@@H](O[C@@H]6O[C@H](CO)[C@H](O[C@@H]7O[C@H](CO)[C@@H](O)[C@H](O[C@@H]8OC[C@@H](O)[C@H](O)[C@H]8O)[C@H]7O[C@@H]7O[C@H](CO)[C@@H](O)[C@H](O)[C@H]7O)[C@H](O)[C@H]6O)CC[C@]5(C)[C@H]4CC[C@]3(C)[C@H]1[C@@H]2C [Tomatine] | 131 |  | 90 | 97 | 92 | Assay activity (CDC42:PAK4 complexes; [6]): Cdc42/PAK4
